Activity calls are given as the source filed them. A value given as a limit tells only on which side of the number the result lay.

Targets include Ephrin type-A receptor 2 (Homo sapiens, UniProt P29317); Actin-related protein 2 (Homo sapiens, UniProt P61160); Activated CDC42 kinase 1 (Homo sapiens, UniProt Q07912); Obg-like ATPase 1 (Homo sapiens, UniProt Q9NTK5).
Test [1] has as its target T1, Signal recognition particle receptor subunit alpha (Homo sapiens, UniProt P08240).
T1 sequence (P08240 whole entry): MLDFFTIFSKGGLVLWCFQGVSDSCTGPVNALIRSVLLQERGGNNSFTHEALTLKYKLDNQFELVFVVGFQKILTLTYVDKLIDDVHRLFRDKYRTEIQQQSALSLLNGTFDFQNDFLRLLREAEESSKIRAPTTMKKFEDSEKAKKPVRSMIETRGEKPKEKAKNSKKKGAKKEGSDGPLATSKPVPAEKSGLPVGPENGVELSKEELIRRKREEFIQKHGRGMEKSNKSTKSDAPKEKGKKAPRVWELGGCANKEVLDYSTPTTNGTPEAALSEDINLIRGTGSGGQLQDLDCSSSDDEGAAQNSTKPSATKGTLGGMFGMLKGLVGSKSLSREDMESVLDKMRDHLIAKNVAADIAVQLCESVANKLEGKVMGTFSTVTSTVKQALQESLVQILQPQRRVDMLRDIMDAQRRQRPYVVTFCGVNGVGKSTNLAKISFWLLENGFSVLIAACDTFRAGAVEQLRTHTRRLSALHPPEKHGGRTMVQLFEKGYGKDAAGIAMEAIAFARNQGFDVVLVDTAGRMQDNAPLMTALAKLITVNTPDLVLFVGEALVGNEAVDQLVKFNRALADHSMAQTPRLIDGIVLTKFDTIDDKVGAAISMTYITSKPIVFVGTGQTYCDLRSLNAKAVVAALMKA

The target of test [2] is Casein kinase I isoform epsilon (Homo sapiens, UniProt P49674).
Test [3] has as its target T2, ATP-dependent RNA helicase DDX1 (Homo sapiens, UniProt Q92499).
T2 sequence (Q92499 whole entry): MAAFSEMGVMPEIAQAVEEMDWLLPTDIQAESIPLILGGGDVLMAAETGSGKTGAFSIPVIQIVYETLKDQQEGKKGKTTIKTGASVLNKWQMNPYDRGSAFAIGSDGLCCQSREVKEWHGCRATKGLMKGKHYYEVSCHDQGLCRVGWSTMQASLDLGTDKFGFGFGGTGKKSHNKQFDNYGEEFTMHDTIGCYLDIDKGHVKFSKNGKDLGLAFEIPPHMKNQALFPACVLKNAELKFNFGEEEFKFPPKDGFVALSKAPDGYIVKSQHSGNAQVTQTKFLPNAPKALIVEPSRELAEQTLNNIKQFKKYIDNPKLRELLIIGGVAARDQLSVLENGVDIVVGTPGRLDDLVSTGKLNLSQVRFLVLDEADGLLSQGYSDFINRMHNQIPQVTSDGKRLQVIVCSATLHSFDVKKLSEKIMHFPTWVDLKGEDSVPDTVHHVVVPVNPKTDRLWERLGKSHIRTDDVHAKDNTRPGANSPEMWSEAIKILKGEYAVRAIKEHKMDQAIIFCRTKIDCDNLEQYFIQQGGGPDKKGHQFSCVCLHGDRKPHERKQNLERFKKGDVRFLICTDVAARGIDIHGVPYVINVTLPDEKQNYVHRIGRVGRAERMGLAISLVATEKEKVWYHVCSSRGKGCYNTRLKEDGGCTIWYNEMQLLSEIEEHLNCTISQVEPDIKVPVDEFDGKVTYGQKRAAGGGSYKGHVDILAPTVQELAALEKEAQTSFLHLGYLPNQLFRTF

In test [4] the target is T3, Phosphatidylinositol 5-phosphate 4-kinase type-2 alpha (Homo sapiens, UniProt P48426).
T3 sequence (P48426 whole entry): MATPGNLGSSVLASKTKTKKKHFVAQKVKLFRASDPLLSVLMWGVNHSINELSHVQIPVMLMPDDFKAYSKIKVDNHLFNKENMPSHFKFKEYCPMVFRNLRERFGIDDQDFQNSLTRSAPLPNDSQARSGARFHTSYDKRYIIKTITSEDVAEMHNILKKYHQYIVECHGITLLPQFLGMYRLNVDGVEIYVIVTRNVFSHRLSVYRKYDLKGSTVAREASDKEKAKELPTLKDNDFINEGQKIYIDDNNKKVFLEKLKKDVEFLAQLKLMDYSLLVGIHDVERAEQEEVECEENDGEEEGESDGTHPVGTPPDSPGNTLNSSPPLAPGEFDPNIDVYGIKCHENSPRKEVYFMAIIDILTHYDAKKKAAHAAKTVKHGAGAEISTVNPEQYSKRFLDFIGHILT

Test [5] has as its target Proto-oncogene tyrosine-protein kinase Src (Homo sapiens, UniProt P12931).
Test [6] concerns the target T4, Interleukin-1 receptor-associated kinase 3 (Homo sapiens, UniProt Q9Y616).
T4 sequence (Q9Y616 whole entry): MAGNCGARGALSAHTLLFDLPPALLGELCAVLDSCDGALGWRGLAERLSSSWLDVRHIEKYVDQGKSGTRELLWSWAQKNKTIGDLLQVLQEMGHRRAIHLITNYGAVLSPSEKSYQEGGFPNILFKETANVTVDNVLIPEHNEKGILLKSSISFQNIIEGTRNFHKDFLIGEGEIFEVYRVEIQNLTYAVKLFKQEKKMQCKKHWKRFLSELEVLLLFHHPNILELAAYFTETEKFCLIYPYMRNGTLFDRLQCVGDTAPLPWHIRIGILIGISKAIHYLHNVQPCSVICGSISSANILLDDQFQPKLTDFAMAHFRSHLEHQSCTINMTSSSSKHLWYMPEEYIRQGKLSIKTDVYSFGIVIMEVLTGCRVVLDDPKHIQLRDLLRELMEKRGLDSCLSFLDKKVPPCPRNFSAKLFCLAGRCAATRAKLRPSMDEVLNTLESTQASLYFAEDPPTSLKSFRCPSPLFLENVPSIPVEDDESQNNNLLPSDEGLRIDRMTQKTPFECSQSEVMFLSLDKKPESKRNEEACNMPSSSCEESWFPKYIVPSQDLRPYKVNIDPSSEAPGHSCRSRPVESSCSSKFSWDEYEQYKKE
Further: in the data inactive means no Kd found up to 30 µM.

Obg-like ATPase 1, sequence (Q9NTK5 whole entry, looked up): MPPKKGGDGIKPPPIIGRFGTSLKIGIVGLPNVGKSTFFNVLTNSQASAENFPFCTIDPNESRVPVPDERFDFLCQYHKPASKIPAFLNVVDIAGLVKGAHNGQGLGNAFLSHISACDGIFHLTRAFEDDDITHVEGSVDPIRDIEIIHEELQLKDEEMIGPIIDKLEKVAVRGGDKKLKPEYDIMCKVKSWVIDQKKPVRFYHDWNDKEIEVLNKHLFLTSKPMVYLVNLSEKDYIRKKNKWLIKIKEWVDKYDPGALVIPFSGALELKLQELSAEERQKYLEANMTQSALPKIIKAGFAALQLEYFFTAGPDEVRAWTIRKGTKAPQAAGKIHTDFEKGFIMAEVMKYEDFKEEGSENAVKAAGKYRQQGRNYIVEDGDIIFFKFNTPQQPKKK
Ephrin type-A receptor 2, sequence (P29317 whole entry): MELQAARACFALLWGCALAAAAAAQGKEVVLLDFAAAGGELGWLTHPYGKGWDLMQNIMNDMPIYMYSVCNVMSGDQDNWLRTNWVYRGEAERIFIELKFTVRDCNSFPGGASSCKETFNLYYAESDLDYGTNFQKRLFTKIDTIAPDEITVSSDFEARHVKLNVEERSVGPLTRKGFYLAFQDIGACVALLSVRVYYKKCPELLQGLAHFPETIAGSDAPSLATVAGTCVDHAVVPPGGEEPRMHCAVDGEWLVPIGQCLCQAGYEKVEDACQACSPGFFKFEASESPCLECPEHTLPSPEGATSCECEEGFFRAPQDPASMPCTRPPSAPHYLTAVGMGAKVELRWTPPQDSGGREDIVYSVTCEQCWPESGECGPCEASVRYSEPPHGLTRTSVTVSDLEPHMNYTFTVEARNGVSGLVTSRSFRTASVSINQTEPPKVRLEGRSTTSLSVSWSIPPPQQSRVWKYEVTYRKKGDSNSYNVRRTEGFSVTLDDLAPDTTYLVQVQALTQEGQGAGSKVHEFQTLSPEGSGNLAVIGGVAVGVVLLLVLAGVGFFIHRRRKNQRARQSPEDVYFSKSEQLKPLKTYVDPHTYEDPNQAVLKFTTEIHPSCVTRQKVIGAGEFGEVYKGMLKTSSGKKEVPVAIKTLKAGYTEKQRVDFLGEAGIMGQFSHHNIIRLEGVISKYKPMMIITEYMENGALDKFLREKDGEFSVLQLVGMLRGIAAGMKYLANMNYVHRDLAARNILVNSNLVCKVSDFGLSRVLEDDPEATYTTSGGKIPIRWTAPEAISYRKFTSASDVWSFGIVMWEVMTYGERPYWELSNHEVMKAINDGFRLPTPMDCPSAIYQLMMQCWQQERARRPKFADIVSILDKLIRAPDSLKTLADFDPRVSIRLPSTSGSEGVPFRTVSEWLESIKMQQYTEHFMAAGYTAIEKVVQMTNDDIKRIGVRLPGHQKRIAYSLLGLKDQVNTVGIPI
Proto-oncogene tyrosine-protein kinase Src, sequence (P12931 2-536 limits assumed): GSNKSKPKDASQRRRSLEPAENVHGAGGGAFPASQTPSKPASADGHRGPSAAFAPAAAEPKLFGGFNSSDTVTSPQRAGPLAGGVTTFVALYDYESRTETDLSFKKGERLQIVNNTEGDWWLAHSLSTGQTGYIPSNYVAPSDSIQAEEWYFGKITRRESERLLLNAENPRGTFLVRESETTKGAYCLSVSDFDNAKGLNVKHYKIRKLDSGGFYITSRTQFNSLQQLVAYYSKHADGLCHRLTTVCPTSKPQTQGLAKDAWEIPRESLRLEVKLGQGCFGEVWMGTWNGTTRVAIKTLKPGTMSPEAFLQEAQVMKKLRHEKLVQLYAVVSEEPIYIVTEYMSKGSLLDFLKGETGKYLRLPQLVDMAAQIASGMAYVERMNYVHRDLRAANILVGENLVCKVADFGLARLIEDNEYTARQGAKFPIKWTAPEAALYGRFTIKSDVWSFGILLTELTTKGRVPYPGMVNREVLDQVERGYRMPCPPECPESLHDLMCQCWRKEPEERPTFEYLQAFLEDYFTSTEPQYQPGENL
Activated CDC42 kinase 1, sequence (Q07912 whole entry): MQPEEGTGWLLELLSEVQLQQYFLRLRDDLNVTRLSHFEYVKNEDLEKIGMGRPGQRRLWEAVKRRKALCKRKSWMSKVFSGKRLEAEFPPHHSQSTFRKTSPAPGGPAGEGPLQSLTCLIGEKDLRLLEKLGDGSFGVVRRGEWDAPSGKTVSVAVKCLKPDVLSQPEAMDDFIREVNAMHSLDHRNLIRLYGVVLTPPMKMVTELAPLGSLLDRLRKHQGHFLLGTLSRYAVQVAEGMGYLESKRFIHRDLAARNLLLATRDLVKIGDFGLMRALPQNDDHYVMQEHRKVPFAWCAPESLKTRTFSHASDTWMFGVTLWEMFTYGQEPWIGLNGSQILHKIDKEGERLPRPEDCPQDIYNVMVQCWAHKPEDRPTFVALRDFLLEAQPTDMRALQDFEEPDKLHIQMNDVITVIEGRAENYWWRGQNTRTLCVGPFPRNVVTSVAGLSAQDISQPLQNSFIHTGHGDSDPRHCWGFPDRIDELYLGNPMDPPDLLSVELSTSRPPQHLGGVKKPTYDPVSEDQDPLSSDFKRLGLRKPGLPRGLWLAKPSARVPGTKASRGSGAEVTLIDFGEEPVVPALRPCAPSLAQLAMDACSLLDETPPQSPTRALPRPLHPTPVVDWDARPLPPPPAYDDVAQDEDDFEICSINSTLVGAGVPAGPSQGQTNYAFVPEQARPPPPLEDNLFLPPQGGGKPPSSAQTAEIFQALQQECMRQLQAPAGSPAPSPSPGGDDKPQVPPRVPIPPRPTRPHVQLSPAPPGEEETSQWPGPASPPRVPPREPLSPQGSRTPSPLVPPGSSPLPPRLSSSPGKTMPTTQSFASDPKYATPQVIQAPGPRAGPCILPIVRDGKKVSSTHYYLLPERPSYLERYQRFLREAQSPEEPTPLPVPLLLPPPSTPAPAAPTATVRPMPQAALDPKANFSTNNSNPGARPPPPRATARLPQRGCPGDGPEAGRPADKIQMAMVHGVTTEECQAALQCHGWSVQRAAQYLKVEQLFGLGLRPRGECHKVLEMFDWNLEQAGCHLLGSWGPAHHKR
Casein kinase I isoform epsilon, sequence (P49674 whole entry, canonical isoform): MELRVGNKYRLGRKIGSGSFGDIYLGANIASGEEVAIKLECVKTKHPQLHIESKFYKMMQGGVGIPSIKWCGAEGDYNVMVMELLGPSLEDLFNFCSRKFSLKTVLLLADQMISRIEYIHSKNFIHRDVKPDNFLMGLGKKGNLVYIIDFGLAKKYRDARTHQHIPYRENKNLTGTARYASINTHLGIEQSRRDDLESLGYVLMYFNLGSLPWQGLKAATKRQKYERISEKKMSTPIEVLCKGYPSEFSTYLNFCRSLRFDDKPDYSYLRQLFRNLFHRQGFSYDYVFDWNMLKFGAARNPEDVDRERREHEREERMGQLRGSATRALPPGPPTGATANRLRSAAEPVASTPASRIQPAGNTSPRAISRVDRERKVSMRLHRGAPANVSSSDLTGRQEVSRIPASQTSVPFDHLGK

What is called Kd is the free concentration of one partner at which half of the binding sites on the other are occupied at equilibrium, for simple one-to-one binding. For the compound `COc1cc2ncnc(Nc3ccc(F)c(Cl)c3)c2cc1NC(=O)/C=C/CN1CCCCC1` [DACOMITINIB ANHYDROUS], the Kd (in test [1]; in [2]; in [3]; on Ephrin type-A receptor 2; in test [4]; in test [5]) was > 30 µM (inactive) in each case. Also, the Kd (on Actin-related protein 2; on Activated CDC42 kinase 1; in [6]; at Obg-like ATPase 1) was > 30 µM (inactive) in each case.

With `COCCN1CCN(Cc2ccc(-c3n[nH]c4c3C(=O)c3c(NC(=O)NN5CCOCC5)cccc3-4)cc2)CC1` [RGB-286638], the Kd (in test [1]; in test [2]; in test [3]; on Ephrin type-A receptor 2; in test [4]; in test [5]) was > 30 µM (inactive) throughout. Further, the Kd (at Actin-related protein 2; on Activated CDC42 kinase 1; in [6]; at Obg-like ATPase 1) was > 30 µM (inactive) throughout.

As to `O=C(NOC[C@H](O)CO)c1ccc(F)c(F)c1Nc1ccc(I)cc1F` [MIRDAMETINIB], the Kd (in test [1]; in [2]; in test [3]; at Ephrin type-A receptor 2; in test [4]; in test [5]) was > 30 µM (inactive) throughout. Moreover, the Kd (on Actin-related protein 2; at Activated CDC42 kinase 1; in test [6]; on Obg-like ATPase 1) was > 30 µM (inactive) in each case.

As to `COc1cc2c(Oc3ccc4[nH]c(C)cc4c3F)ncnc2cc1OCCCN1CCCC1` [CEDIRANIB], the Kd (in test [1]; in test [3]; in test [4]; in test [5]; at Actin-related protein 2; on Obg-like ATPase 1) was > 30 µM (inactive) throughout.

Consider `CNC(=O)c1ccc(Nc2ncc(C(F)(F)F)c(NCc3nccnc3N(C)S(C)(=O)=O)n2)cc1` [DEFACTINIB], for which the Kd (in test [1]; in test [2]; in test [3]; on Ephrin type-A receptor 2; in test [4]; in test [5]) was > 30 µM (inactive) in each case. Moreover, the Kd (on Activated CDC42 kinase 1; in [6]; at Obg-like ATPase 1) was > 30 µM (inactive) throughout.

Take `CC1(COc2ccc3c(c2)ncn3-c2ccc3cccc(N4CCC(N)CC4)c3n2)COC1` [CRENOLANIB]: the Kd (in test [2]; in test [3]; at Ephrin type-A receptor 2; in test [4]; in [5]; at Actin-related protein 2) was > 30 µM (inactive) throughout. In addition, the values for the Kd (at Activated CDC42 kinase 1; in test [6]; at Obg-like ATPase 1) were > 30 µM (inactive), 1.51 µM (active) and 0.007 µM, respectively.

`CCOc1ccn(-c2ccc(F)cc2)c(=O)c1C(=O)Nc1ccc(Oc2ccnc(N)c2Cl)c(F)c1` [BMS-777607]: the Kd (in test [1]; in test [2]; in [3]; on Ephrin type-A receptor 2; in [4]; in test [5]) was > 30 µM (inactive) each time. The Kd on Activated CDC42 kinase 1 and on Obg-like ATPase 1 was > 30 µM (inactive) throughout.

Consider `CN(c1ncccc1CNc1nc(Nc2ccc3c(c2)CC(=O)N3)ncc1C(F)(F)F)S(C)(=O)=O` [PF-00562271], for which the Kd (in test [1]; in [2]; in test [3]; in test [4]; on Actin-related protein 2; in test [6]) was > 30 µM (inactive) throughout. The Kd on Obg-like ATPase 1 was > 30 µM (inactive).

With `COc1cc(F)c(F)c(Nc2ccc(I)cc2F)c1NS(=O)(=O)C1(C[C@H](O)CO)CC1` [REFAMETINIB], the Kd (in test [2]; in test [3]; at Ephrin type-A receptor 2; in test [4]; in [5]; on Activated CDC42 kinase 1) was > 30 µM (inactive) throughout. Further, the Kd (in [6]; at Obg-like ATPase 1) was > 30 µM (inactive) in each case.

`C[C@@]1(C(=O)Nc2ccc(F)nc2)CCCN1c1nc(Nc2cc(C3CC3)n[nH]2)c2cccn2n1` [BMS-754807]: the Kd (in test [1]; in test [3]; in test [4]; on Actin-related protein 2; on Obg-like ATPase 1) was > 30 µM (inactive) throughout.

Turning to `O=S(=O)(c1cccc2cnccc12)N1CCCNCC1` [FASUDIL], the Kd (in test [1]; in [2]; in test [3]; in [4]; at Actin-related protein 2; on Obg-like ATPase 1) was > 30 µM (inactive) in each case.

For `Cn1c(=O)n(-c2ccc(C(C)(C)C#N)cc2)c2c3cc(-c4cnc5ccccc5c4)ccc3ncc21` [DACTOLISIB], the Kd (in test [1]; in [2]; in [3]; at Ephrin type-A receptor 2; in test [4]; in test [5]) was > 30 µM (inactive) each time. The Kd (on Actin-related protein 2; in test [6]; on Obg-like ATPase 1) was > 30 µM (inactive) in each case.

These data come from ChEMBL document CHEMBL3991601, “The target landscape of clinical kinase drugs” (Science, 2017).
